Experimental data taken from ChEMBL document CHEMBL4814071, “Synthesis and antibacterial study of cell-penetrating peptide conjugated trifluoroacetyl and thioacetyl lysine modified peptides” (Eur J Med Chem, 2021).
Counter-ions that a name gives are not always drawn. Calls of active or inactive are those of the source. No cut-off for these calls is given here. *1 amine or outer side, *2 acyl side, *3 side chain or, on linkers, in order; H or OH if unused. Where a SMILES comes first, the peptide text is derived from it. Bridges are numbered along the chain shown (N, C = ends). Side-chain parts run from the residue outwards. [ ]: non-standard residue; d: D form. The star is where a group is joined. NH(2-Me-phenyl) = Cc1ccccc1N*; X1 = CC[C@H](C)CCCCC(=O)*; Dab = NCC[C@H](N)C(=O)O; CO = O=C([*:1])[*:2]; Tfa = O=C(C(F)(F)F)*

Legend:
Cell membrane [1] = assay: Disruption of membrane integrity in Staphylococcus aureus at 2 times MIC measured after 20 mins by SEM analysis
Escherichia coli [2] = assay: Potentiation of polymyxin B-induced antibacterial activity against Escherichia coli assessed as polymyxin B MIC incubated for 24 hrs by microplate reader method; format: functional
Pseudomonas aeruginosa [3] = assay: Synergistic antibacterial activity against Pseudomonas aeruginosa assessed as fractional inhibitory concentration index incubated for 24 hrs in presence of Polymyxin B; format: functional
Pseudomonas aeruginosa [4] = assay: Antibacterial activity against Pseudomonas aeruginosa assessed as reduction in microbial growth after 24 hrs in presence of polymyxin B by microplate reader method; format: functional
Escherichia coli [5] = assay: Antibiofilm activity against Escherichia coli assessed as as inhibition of biofilm formation incubated for 48 hrs by crystal violet staining assay; format: functional
[6] = target: NAD-dependent histone deacetylase SIR2 (Saccharomyces cerevisiae S288c) (UniProt P06700); assay: Inhibition of yeast sirtuin2-mediated Ura3 transcriptional silencing at telomeric locus assessed as yeast killing at 50 uM incubated for 72 hrs in presence of FOA by absorbance based analysis
Pseudomonas aeruginosa [7] = assay: Antibacterial activity against Pseudomonas aeruginosa assessed as reduction in microbial growth after 24 hrs by microplate reader method; format: functional
Lipid bilayer [8] = assay: Binding affinity to bacterial inner membrane mimic DOPE/DOPG (3:1) large unilamellar vesicles assessed as calcein leakage at 2.5 uM by fluorescence based assay
Escherichia coli [9] = assay: Antibacterial activity against Escherichia coli assessed as reduction in microbial growth after 24 hrs by microplate reader method; format: functional
[10] = Induction of yeast killing at 50 uM incubated for 72 hrs in presence of Ura3 and absence of FOA by absorbance based analysis; settings: saccharomyces cerevisiae
Staphylococcus aureus [11] = assay: Potentiation of streptomycin-induced antibacterial activity against Staphylococcus aureus assessed as fold change in streptomycin MIC incubated for 24 hrs by microplate reader method; format: functional
[12] = Hemolytic activity against mouse RBC at 1000 uM measured after 1 hr by microplate reader analysis; format: cell-based, Erythrocyte; settings: mouse red blood cells (erythrocytes), read-out: Activity
Escherichia coli [13] = assay: Antibiofilm activity against Escherichia coli assessed as biofilm eradication at 2XMBEC incubated for 12 hrs by SYTO9/PI staining based microscopic analysis; format: functional, organism-based
Pseudomonas aeruginosa [14] = assay: Potentiation of polymyxin B-induced antibacterial activity against Pseudomonas aeruginosa assessed as polymyxin B MIC incubated for 24 hrs by microplate reader method; format: functional
Staphylococcus aureus [15] = assay: Antibiofilm activity against Staphylococcus aureus assessed as inhibition of biofilm formation incubated for 48 hrs by crystal violet staining assay; format: functional
HeLa = assay: Cytotoxicity against human HeLa cells assessed as reduction in cell viability incubated for 48 hrs by MTT assay; format: cell-based
Cell membrane [16] = assay: Disruption of membrane integrity in Escherichia coli at 2 times MIC by TEM analysis
Staphylococcus aureus [17] = assay: Antibiofilm activity against Staphylococcus aureus assessed as biofilm eradication incubated for 24 hrs by crystal violet staining assay; format: functional
Escherichia coli [18] = assay: Synergistic antibacterial activity against Escherichia coli assessed as fractional inhibitory concentration index incubated for 24 hrs in presence of Polymyxin B; format: functional
Lipid bilayer [19] = assay: Binding affinity to bacterial inner membrane mimic POPE/POPG (3:1) LUVs assessed as increase in intensity by one-dimensional 19F NMR based analysis
Staphylococcus aureus [20] = assay: Antibacterial activity against Staphylococcus aureus assessed as reduction in microbial growth after 24 hrs by microplate reader method; format: functional
Cell membrane [21] = assay: Disruption of membrane integrity in Escherichia coli at 2 times MIC measured after 20 mins by SEM analysis
BE(2)-C = assay: Cytotoxicity against human BE(2)-C cells assessed as reduction in cell viability incubated for 48 hrs by MTT assay; format: cell-based
Cell membrane [22] = assay: Disruption of membrane integrity in Staphylococcus aureus at 2 times MIC by TEM analysis
Staphylococcus aureus [23] = assay: Synergistic antibacterial activity against Staphylococcus aureus assessed as fractional inhibitory concentration index incubated for 24 hrs in presence of streptomycin; format: functional
[24] = Inhibition of transcriptional machinery using Puc19-lacCONS plasmid DNA and Escherichia coli RNA polymerase-sigma70 holoenzyme at 10 uM incubated for 35 mins followed by NTP addition for 30 mins by spectrofluorometer analysis; format: functional; settings: time 65.0 min
Lipid bilayer [25] = assay: Binding affinity to bacterial inner membrane mimic DOPE/DOPG (3:1) large unilamellar vesicles assessed as calcein leakage at 20 uM by fluorescence based assay
Escherichia coli [26] = assay: Antibiofilm activity against Escherichia coli assessed as biofilm eradication incubated for 24 hrs by crystal violet staining assay; format: functional
Staphylococcus aureus [27] = assay: Potentiation of streptomycin-induced antibacterial activity against Staphylococcus aureus assessed as streptomycin MIC incubated for 24 hrs by microplate reader method; format: functional
Staphylococcus aureus [28] = assay: Antibacterial activity against Staphylococcus aureus assessed as reduction in microbial growth after 24 hrs in presence of streptomycin by microplate reader method; format: functional
Cell membrane [29] = assay: Disruption of membrane integrity in Escherichia coli assessed as cellular leakage at 2 times MIC by TEM analysis
Staphylococcus aureus [30] = assay: Antibiofilm activity against Staphylococcus aureus assessed as biofilm eradication at 2XMBEC incubated for 12 hrs by SYTO9/PI staining based microscopic analysis; format: functional, organism-based
Lipid bilayer [31] = assay: Binding affinity to mammalian membrane mimic DOPC/40% cholesterol assessed as calcein leakage at 20 uM by fluorescence based assay; format: ADME
Escherichia coli [32] = assay: Antibacterial activity against Escherichia coli assessed as reduction in microbial growth after 24 hrs in presence of polymyxin B by microplate reader method; format: functional

Chain of NAD-dependent histone deacetylase SIR2 (Saccharomyces cerevisiae S288c) (P06700 whole entry): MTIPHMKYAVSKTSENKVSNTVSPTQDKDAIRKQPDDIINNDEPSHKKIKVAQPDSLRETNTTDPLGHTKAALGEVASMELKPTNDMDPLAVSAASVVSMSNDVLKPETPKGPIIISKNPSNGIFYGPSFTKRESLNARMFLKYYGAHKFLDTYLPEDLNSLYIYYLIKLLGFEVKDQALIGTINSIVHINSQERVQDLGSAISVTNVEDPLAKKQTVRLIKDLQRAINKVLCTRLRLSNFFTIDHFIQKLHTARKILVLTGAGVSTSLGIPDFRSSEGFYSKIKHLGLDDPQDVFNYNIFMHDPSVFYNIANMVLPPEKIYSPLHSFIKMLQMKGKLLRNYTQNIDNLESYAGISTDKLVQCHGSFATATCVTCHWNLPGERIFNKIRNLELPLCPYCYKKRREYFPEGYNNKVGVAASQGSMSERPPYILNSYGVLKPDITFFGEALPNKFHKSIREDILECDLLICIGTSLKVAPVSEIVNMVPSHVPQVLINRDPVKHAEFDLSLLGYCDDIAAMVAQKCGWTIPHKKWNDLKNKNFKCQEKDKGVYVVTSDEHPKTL

Q: Which results are given for `CC(=O)N[C@@H](Cc1ccc(O)cc1)C(=O)NCC(=O)N[C@@H](CCCNC(=N)N)C(=O)N[C@@H](CCCCN)C(=O)N[C@@H](CCCCN)C(=O)N[C@@H](CCCNC(=N)N)C(=O)N[C@@H](CCCNC(=N)N)C(=O)N[C@@H](CCC(N)=O)C(=O)N[C@@H](CCCNC(=N)N)C(=O)N[C@@H](CCCNC(=N)N)C(=O)N[C@@H](CCCNC(=N)N)C(=O)NCC(=O)NCC(=O)NCC(=O)N[C@@H](CCCCN)C(=O)NCC(=O)N[C@@H](CC(C)C)C(=O)N[C@@H](CCCNC(=N)N)C(=O)N[C@@H](CCCCNC(=O)C(F)(F)F)C(=O)N[C@@H](Cc1ccccc1)C(=O)NCC(=O)N[C@@H](C)C(=O)N[C@@H](CCCCN)C(=O)N[C@@H](CCCNC(=N)N)C(=O)N[C@@H](Cc1cnc[nH]1)C(=O)N[C@@H](CCCNC(=N)N)C(=O)N[C@@H](CS)C(=O)O` (Ac-YGRKKRRQRRRGGGKGLRK(Tfa)FGAKRHRC-OH)?
A: Activity (Cell membrane [1]): Active; MIC (Escherichia coli [2]): 0.1 µM; fractional inhibitory concentration index (FICI) (Pseudomonas aeruginosa [3]): 0.42; MIC (Pseudomonas aeruginosa [4]): 12.5 µM; MBIC (Escherichia coli [5]): 15.6 µM; inhibition [6]: Active; MIC (Pseudomonas aeruginosa [7]): 25 µM; Activity (Lipid bilayer [8]): 90%; MIC (Escherichia coli [9]): 1.5 µM; Activity [10]: Toxic; fold change (FC) (Staphylococcus aureus [11]): 6; hemolysis at 1 h, 1000 µM [12]: < 5%; Activity (Escherichia coli [13]): Active; MIC (Pseudomonas aeruginosa [14]): 0.05 µM; MBIC (Staphylococcus aureus [15]): 0.8 µM; IC50 (HeLa): 20.2 µM; Activity (Cell membrane [16]): Active; MBEC (Staphylococcus aureus [17]): 3.2 µM; fractional inhibitory concentration index (FICI) (Escherichia coli [18]): 0.73; Activity (Lipid bilayer [19]): Active; MIC (Staphylococcus aureus [20]): 0.2 µM; Activity (Cell membrane [21]): Active; IC50 (BE(2)-C): 17.4 µM; Activity (Cell membrane [22]): Active; fractional inhibitory concentration index (FICI) (Staphylococcus aureus [23]): 0.22; inhibition [24]: 100%; Activity (Lipid bilayer [25]): Active; MBEC (Escherichia coli [26]): 62.5 µM; MIC (Staphylococcus aureus [27]): 0.38 µM; MIC (Staphylococcus aureus [28]): 0.05 µM; Activity (Cell membrane [29]): Active; Activity (Staphylococcus aureus [30]): Active; Activity (Lipid bilayer [31]): < 20%; MIC (Escherichia coli [32]): 0.63 µM

Q: For `CC(=O)N[C@@H](Cc1ccc(O)cc1)C(=O)NCC(=O)N[C@@H](CCCNC(=N)N)C(=O)N[C@@H](CCCCN)C(=O)N[C@@H](CCCCN)C(=O)N[C@@H](CCCNC(=N)N)C(=O)N[C@@H](CCCNC(=N)N)C(=O)N[C@@H](CCC(N)=O)C(=O)N[C@@H](CCCNC(=N)N)C(=O)N[C@@H](CCCNC(=N)N)C(=O)N[C@@H](CCCNC(=N)N)C(=O)NCC(=O)NCC(=O)NCC(=O)N[C@@H](CCCCN)C(=O)NCC(=O)N[C@@H](CC(C)C)C(=O)N[C@@H](CCCNC(=N)N)C(=O)N[C@@H](CCCCNC(=O)Nc1ccccc1C)C(=O)N[C@@H](Cc1ccccc1)C(=O)NCC(=O)N[C@@H](C)C(=O)N[C@@H](CCCCN)C(=O)N[C@@H](CCCNC(=N)N)C(=O)N[C@@H](Cc1cnc[nH]1)C(=O)N[C@@H](CCCNC(=N)N)C(=O)N[C@@H](CS)C(=O)O` (Ac-YGRKKRRQRRRGGGKGLRK([CO-NH(2-Me-phenyl)])FGAKRHRC-OH), which MIC (Pseudomonas aeruginosa [7]) is on record?
A: 25 µM

Q: What about the MIC (Escherichia coli [9]) of the same molecule?
A: 1.5 µM

Q: And the MIC (Staphylococcus aureus [20])?
A: 0.2 µM

Q: Which results are given for `CC[C@H](C)CCCCC(=O)N[C@@H](CCN)C(=O)N[C@H](C(=O)N[C@@H](CCN)C(=O)N[C@H]1CCNC(=O)[C@H]([C@@H](C)O)NC(=O)[C@H](CCN)NC(=O)[C@H](CCN)NC(=O)[C@H](CC(C)C)NC(=O)[C@@H](Cc2ccccc2)NC(=O)[C@H](CCN)NC1=O)[C@@H](C)O` (X1-[Dab]T[Dab][Dab][Dab][dF]L[Dab][Dab]T; lactam 4-C)?
A: MIC (Pseudomonas aeruginosa [7]): 0.15 µM; MIC (Escherichia coli [9]): 0.09 µM

Q: For `CN[C@@H]1[C@H](O[C@H]2[C@H](O[C@H]3[C@H](O)[C@@H](O)[C@H](N=C(N)N)[C@@H](O)[C@@H]3N=C(N)N)O[C@@H](C)[C@]2(O)C=O)O[C@@H](CO)[C@H](O)[C@H]1O` [STREPTOMYCIN], which MIC (Staphylococcus aureus [20]) is on record?
A: 2.2 µM
